This note sets out measurements from US7109193B2, “Tricyclic diazepines tocolytic oxytocin receptor antagonists” (Wyeth, priority 2001, dated 2006).

Structures are written as SMILES.

The target in this experiment is T1, human vasopressin V2 receptor subtype (Homo sapiens, UniProt P30518).
T1 construct: host or cells: CHO cells (pZeoSV vector)
The experiment is described as follows: Vasopressin binding in Chinese Hamster Ovary cell membranes expressing human vasopressin V2 subtype receptors. The settings on record: 100 nM, CHO cell membranes, [3H]arginine vasopressin, values without parentheses. The procedure: Vasopressin Binding in Chinese Hamster Ovary Cell Membranes Expressing Human Vasopressin V2 Subtype Receptors
Chinese Hamster Ovary (CHO) cells stably transfected with the human V2 subtype receptors were obtained from M. Thibonnier, Case Western Reserve University School of Medicine, Cleveland, Ohio.
A. Passaging and Amplification of Cells:
The trypsin is removed by aspiration and the cells dislodged by tapping. Cell Culture medium (e.g. 30 mL for 1:30 split) is immediately added and mixed well to inactivate trypsin. 1 mL of detached cells is added to new culture flasks containing fresh Cell Culture medium (e.g. into 25 mL per T-150 flask), and mixed gently. The cells are incubated at 37° C. in 5% CO2. The medium is changed at 3 to 4 day interval (or as appropriate). […] All steps are done under sterile conditions. B. Membrane Preparation: The cells are washed twice gently with Hank's Balanced Salt solution (e.g. use 10 mL per T-150 flask). […] The contents are transferred to centrifuge tubes (50 mL) kept in ice bath. All subsequent steps are done at 4° C. The tubes are centrifuged at 300×g for 15 min (1380 rpm on SORVAL, Model RT6000D, using the rotor for 50 mL tubes). The supernatant is discarded and the cells suspended in homogenizing buffer (10 mM Tris-HCl containing 0.25 M sucrose and 1 mM EDTA, pH 7.4) ensuring that the volume of the buffer is about ten times the volume of the cell pellet. The cells are pooled into a centrifuge tube (50 mL) and homogenized with a Polytron at setting 6 for 10 sec. The homogenate is transferred into a Potter-Elvjehm homogenizer and homogenized with 3 strokes. The homogenate is centrifuged at 1500×g for 60 min at 4° C. (3100 rpm using SORVAL, model RT6000D, using the rotor for 50 mL tubes). The pellet is discarded. The supernatant is centrifuged at 100,000×g for 60 min. at 4° C. (Beckman L8-80M ultracentrifuge; spin at 37,500 rpm with rotor type 70 Ti for 50 mL tubes; 38,000 rpm with type 80Ti for 15 mL tubes; or 35,800 rpm with rotor type 45Ti). The supernantant is discarded and the pellet suspended in 3 to 4 mL of Tris buffer (50 mM TRIS-HCl, pH 7.4). The protein content is estimated by the Bradford or Lowry method. The volume of the membrane suspension is adjusted with the membrane buffer (50 mM Tris-HCl containing 0.1% BSA and 0.1 mM PMSF) to give 3.0 mg/mL (or as appropriate) of protein. The membranes are aliquoted and stored at −70° C. C. Radioligand Binding Assay: In wells of a 96-well format microtiter plate, is added 90, 110 or 130 μL (to make up a final volume of 200 μL) of assay buffer containing 50 mM of Tris-HCl (pH 7.4), […], 1 mg % aprotinin, 1 mg % leupeptin, 2 mg % 1,10-phenanthroline, 10 mg % trypsin inhibitor, and 0.1 mM PMSF. The inhibitors are added on the day of the experiment. The components are mixed at room temperature, and then kept in ice bath following adjustment of the pH to 7.4. […] For vasopressin and other peptide ligands 20 μL of 50% DMSO is added and the assay buffer volume is adjusted accordingly. To each well is added 50 μL of frozen membrane suspension thawed immediately prior to use and diluted in assay buffer to the required concentration (equivalent to 25 to 50 μg of protein/well as needed). 20 μL of 8 nM [^3H]arginine vasopressin ligand in the assay buffer, prepared just before use is added and incubated at room temperature for 60 min. shaking the plate on a mechanical shaker for the first 15 min. The incubation is stopped by rapid filtration of the plate contents followed by wash with ice-cold buffer (50 mM Tris-HCl, pH 7.4) using a cell harvester (Tomtek and Printed filtermat-B filter paper). The filter paper is thoroughly dried (7–12 min. in a microwave oven) and impregnated with MeltiLex B/H melt-on scintillation wax sheets and the radioactivity counted in a betaplate scintillation counter.

T1 sequence (P30518 whole entry): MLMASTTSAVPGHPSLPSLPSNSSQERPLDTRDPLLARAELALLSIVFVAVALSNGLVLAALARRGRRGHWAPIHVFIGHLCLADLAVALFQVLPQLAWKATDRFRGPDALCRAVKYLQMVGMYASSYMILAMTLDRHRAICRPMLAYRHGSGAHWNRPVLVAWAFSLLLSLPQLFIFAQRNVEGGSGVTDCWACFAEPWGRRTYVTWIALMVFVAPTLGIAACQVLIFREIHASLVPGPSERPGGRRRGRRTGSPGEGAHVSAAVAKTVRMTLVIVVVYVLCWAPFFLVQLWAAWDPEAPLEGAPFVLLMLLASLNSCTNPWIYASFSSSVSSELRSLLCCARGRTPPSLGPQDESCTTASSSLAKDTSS

By inhibition is commonly meant the drop in the measured response relative to a control, in per cent. In the case of `COc1ccccc1-c1ccc(C(=O)N2Cc3ccc(C(=O)NCCN4CCCCC4)n3Cc3ccccc32)cc1` [Example 152, 10-[(2′-Methoxy[1,1′-biphenyl]-4-yl)carbonyl]-N-[2-(1-piperidinyl)ethyl]-10,11-dihydro-5H-pyrrolo[2,1-c][1,4]benzodiazepine-3-carboxamide], the inhibition at 0.1 µM came to 10%.
The same measure, in the same setting: the result for `COc1cccc(-c2ccc(C(=O)N3Cc4ccc(C(=O)N5CCC(N6CCCCC6)CC5)n4Cc4ccccc43)cc2OC)c1` [Example 120, {10-[(2,3′-Dimethoxy-[1,1′-biphenyl]-4-yl)carbonyl]-10,11-dihydro-5H-pyrrolo[2,1-c][1,4]benzodiazepin-3-yl}[4-(1-piperidinyl)-1-piperidinyl]methanone] reads 6%.
Turning to `COc1cccc(-c2ccc(C(=O)N3Cc4ccc(C(=O)N5CCC(N6CCCC6)CC5)n4Cc4ccccc43)cc2OC)c1` [Example 146, {10-[(2,3′-Dimethoxy[1,1′-biphenyl]-4-yl)carbonyl]-10,11-dihydro-5H-pyrrolo[2,1-c][1,4]benzodiazepin-3-yl}[4-(1-pyrrolidinyl)-1-piperidinyl]methanone], the inhibition at 0.1 µM was 12%.
Regarding `COc1cc(-c2ccccc2C)c(Cl)cc1C(=O)N1Cc2ccc(C(=O)N3CCC[C@H]3CN3CCCC3)n2Cc2ccccc21` [Example 267, {10-[(6-Chloro-3-methoxy-2′-methyl[1,1′-biphenyl]-4-yl)carbonyl]-10,11-dihydro-5H-pyrrolo[2,1-c][1,4]benzodiazepin-3-yl}[(2S)-2-(1-pyrrolidinylmethyl)pyrrolidinyl]methanone], the “V2 % inhibition @ 100 nM” value amounted to 24%.
On the same count and under the same terms, the result for `COc1cccc(-c2ccc(C(=O)N3Cc4ccc(C(=O)N5CCN(CCN(C)C)CC5)n4Cc4ccccc43)cc2C)c1` [Example 199, {4-[2-(Dimethylamino)ethyl]-1-piperazinyl{}10-[(3′-methoxy-2-methyl[1,1′-biphenyl]-4-yl)carbonyl]-10,11-dihydro-5H-pyrrolo[2,1-c][1,4]benzodiazepin-3-yl}methanone] reads 6%.
In the case of `Cc1cc(C(=O)N2Cc3ccc(C(=O)N4CCC(N5CCCC5)CC4)n3Cc3ccccc32)ccc1-c1ccccc1C(F)(F)F` [Example 148, (10-{[2-Methyl-2′-(trifluoromethyl)[1,1′-biphenyl]-4-yl]carbonyl}-10,11-dihydro-5H-pyrrolo[2,1-c][1,4]benzodiazepin-3-yl)[4-(1-pyrrolidinyl)-1-piperidinyl]methanone], the inhibition at 0.1 µM was determined as 1%.
In the case of `COc1cc(C(=O)N2Cc3ccc(C(=O)N4CCC[C@H]4CN4CCCC4)n3Cc3ccccc32)ccc1-n1c(C)ccc1C` [Example 321, {10-[4-(2,5-Dimethyl-1H-pyrrol-1-yl)-3-methoxybenzoyl]-10,11-dihydro-5H-pyrrolo[2,1-c][1,4]benzodiazepin-3-yl}[(2S)-2-(1-pyrrolidinylmethyl)pyrrolidinyl]methanone], the “V2 % inhibition @ 100 nM” value was 23%.
In the case of `COc1ccccc1-c1ccc(C(=O)N2Cc3ccc(C(=O)NCCCn4ccnc4)n3Cc3ccccc32)cc1C` [Example 123, N-[3-(1H-Imidazol-1-yl)propyl]-10-[(2′-methoxy-2-methyl[1,1′-biphenyl]-4-yl)carbonyl]-10,11-dihydro-5H-pyrrolo[2,1-c][1,4]benzodiazepine-3-carboxamide], the inhibition at 0.1 µM is 15%.
Consider `COc1cccc(-c2ccc(C(=O)N3Cc4ccc(C(=O)N(C)CCCN(C)C)n4Cc4ccccc43)cc2OC)c1` [Example 108, 10-[(2,3′-Dimethoxy[1,1′-biphenyl]-4-yl)carbonyl]-N-[3-(dimethylamino)propyl]-N-methyl-10,11-dihydro-5H-pyrrolo[2,1-c][1,4]benzodiazepine-3-carboxamide], for which the inhibition at 0.1 µM was 8%.
`COc1cc2c(cc1OC)N(C(=O)c1ccc(-c3ccccc3C(F)(F)F)c(C)c1)Cc1ccc(C(=O)N(C)CCCN(C)C)n1C2.Cl` [Example 13, N-Methyl-[N-(3-dimethylamino)propyl]-7,8-dimethoxy-10-{[2-methyl-2′-(trifluoromethyl)[1,1′-biphenyl]-4-yl]carbonyl}-10,11-dihydro-5H-pyrrolo[2,1-c][1,4]benzodiazepine-3-carboxamide hydrochloride salt]: the “V2 % inhibition @ 100 nM” value is −4%.
On the same count and under the same terms, the result for `COc1cccc(-c2ccc(C(=O)N3Cc4ccc(C(=O)NCCC5CCCN5C)n4Cc4ccccc43)cc2C)c1` (stereo not drawn) [Example 164, 10-[(3′-Methoxy-2-methyl[1′1′-biphenyl]-4-yl)carbonyl]-N-[2-(1-methyl-2-pyrrolidinyl)ethyl]-10,11-dihydro-5H-pyrrolo[2,1-c][1,4]benzodiazepine-3-carboxamide] reads 16%.
Turning to `COc1cccc(-c2ccc(C(=O)N3Cc4ccc(C(=O)NCCCn5ccnc5)n4Cc4ccccc43)cc2C)c1` [Example 125, N-[3-(1H-Imidazol-1-yl)propyl]-10-[(3′-methoxy-2-methyl[1,1′-biphenyl]-4-yl)carbonyl]-10,11-dihydro-5H-pyrrolo[2,1-c][1,4]benzodiazepine-3-carboxamide], the inhibition at 0.1 µM was found to be 8%.
In the case of `Cc1ccccc1-c1ccc(C(=O)N2Cc3ccc(C(=O)N4CC[C@@H](N(C)C)C4)n3Cc3ccccc32)cc1` [Example 280, [(3R)-3-(Dimethylamino)pyrrolidinyl]{10-[(2′-methyl[1,1′-biphenyl]-4-yl)carbonyl]-10,11-dihydro-5H-pyrrolo[2,1-c][1,4]benzodiazepin-3-yl}methanone], the “V2 % inhibition @ 100 nM” value was 6%.
Still for that read-out and setting: the result for `COc1cccc(-c2cc(OC)c(C(=O)N3Cc4ccc(C(=O)N5CC[C@@H](N(C)C)C5)n4Cc4ccccc43)cc2Cl)c1` [Example 275, {10-[(6-Chloro-3,3′-dimethoxy[1,1′-biphenyl]-4-yl)carbonyl]-10,11-dihydro-5H-pyrrolo[2,1-c][1,4]benzodiazepin-3-yl}[(3R)-3-(dimethylamino)pyrrolidinyl]methanone] reads 21%.
Turning to `Cc1ccccc1-c1ccc(C(=O)N2Cc3ccc(C(=O)N4CCC(N5CCCCC5)CC4)n3Cc3ccccc32)cc1` [Example 115, {10-[(2′-Methyl[1,1′-biphenyl]-4-yl)carbonyl]-10,11-dihydro-5H-pyrrolo[2,1-c][1,4]benzodiazepin-3-yl}[4-(1-piperidinyl)-1-piperidinyl]methanone], the inhibition at 0.1 µM is 12%.
Regarding `COc1ccccc1-c1ccc(C(=O)N2Cc3ccc(C(=O)N4CCC(N5CCCC5)CC4)n3Cc3ccccc32)cc1C` [Example 137, {10-[(2′-Methoxy-2-methyl[1,1′-biphenyl]-4-yl)carbonyl]-10,11-dihydro-5H-pyrrolo[2,1-c][1,4]benzodiazepin-3-yl}[4-(1-pyrrolidinyl)-1-piperidinyl]methanone], the inhibition at 0.1 µM is -4%.
As for `COc1cc2c(cc1OC)N(C(=O)c1ccc(-c3ccccc3C(F)(F)F)c(C)c1)Cc1ccc(C(=O)N3CCC(=O)CC3)n1C2` [Example 14, 7,8-Dimethoxy-10-{[2-methyl-2′-(trifluoromethyl)-[1,1′-biphenyl]-4-yl]carbonyl}-[(10,11-dihydro-5H-pyrrolo[2,1-c][1,4]benzodiazepin-3-yl)carbonyl]-4-piperidinone], the “V2 % inhibition @ 100 nM” value was −3%.
Take `COc1cccc(-c2ccc(C(=O)N3Cc4ccc(C(=O)NCCCn5ccnc5)n4Cc4ccccc43)cc2OC)c1` [Example 133, 10-[(2,3′-Dimethoxy[1,1′-biphenyl]4-yl)carbonyl]-N-[3-(1H-imidazol-1-yl)propyl]-10,11-dihydro-5H-pyrrolo[2,1-c][1,4]benzodiazepine-3-carboxamide]: the inhibition at 0.1 µM turned out to be 8%.
